# Where a name gives a salt, the structure may show the parent alone. Read-outs that look alike come from different tables or passages of the source.
# Columns and labels:
# [1] = test system: leukotriene pathway in human whole blood (LTB4); assay: Human whole blood assay (LTB4 levels after calcium ionophore A23187 stimulation); assay type: cell-based
# Description: The ability of the compounds of the present invention to treat a FLAP-mediated disease and/or disorder, or associated symptoms or complications thereof, was determined using the following procedures. Binding assay data represent the average value obtained from two different assay plates, with samples run in duplicate on each plate. Human whole blood assay data represent a single replicate on an assay plate using whole blood from at least one healthy donor.
# An in vitro cellular assay was performed using human whole blood collected in heparin-containing tubes, which was used to test the ability of compounds to modulate the leukotriene pathway in human whole blood. The blood was diluted 1:1 in RPMI medium, pre-incubated for 15 min at 37° Celsius with test compounds at various concentrations, and then stimulated with calcium ionophore, A23187 (7 μg/mL), for 30 min at 37° Celsius. The samples were then centrifuged and plasma was removed. The plasma was diluted in assay buffer and LTB4 levels were measured using a commercial kit (Enzo Life Sciences). The concentration of each compound that was required for half-maximal inhibition (modulation) of recombinant enzyme activity (IC50) was calculated by a 4-parameter equation using the program GraphPad Prism (GraphPad software).
# human FLAP = human FLAP (Homo sapiens (Human), UniProt P20292); assay: FLAP binding assay (HTRF format)
# Sequence of human FLAP (P20292 whole entry): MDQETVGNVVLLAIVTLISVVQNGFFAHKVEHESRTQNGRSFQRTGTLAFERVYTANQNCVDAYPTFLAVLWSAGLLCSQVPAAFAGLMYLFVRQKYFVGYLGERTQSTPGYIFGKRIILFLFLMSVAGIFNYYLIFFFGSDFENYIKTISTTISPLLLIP
# Outline: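 Averaged over two plates (duplicate wells per plate); output given as HTRF ratio.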
# [2] = Homo sapiens, human whole blood diluted 1:1, A23187 stimulation; Table 6 (additional runs); read-out: Human Whole Blood LTB4 IC50 1:1
# [3] = human FLAP wild type, Table 6 (additional runs)
# [4] = Homo sapiens, Table 6 (additional runs); human whole blood diluted 1:1, A23187 stimulation; read-out: Human Whole Blood LTB4 IC50 1:1
# [5] = Table 6 (additional runs), human FLAP wild type
Compound,"IC50 [1, 2]",Ki (human FLAP; [3]),"IC50 [1, 4]",Ki (human FLAP; [5]),"Ki (human FLAP; human FLAP wild type, a calculated value of 0.000 indicates Ki less than 1 nM)"
"Nc1cnc(-c2ccc(-c3ccccc3OC3CCS(=O)(=O)CC3)cc2F)cn1 [Example 885, 5-{2′-[(1,1-Dioxidotetrahydro-2H-thiopyran-4-yl)oxy]-3-fluorobiphenyl-4-yl}pyrazin-2-amine]",1060 nM,40.8 nM,–,–,–
CC(=O)N1CCC(S(=O)(=O)c2nc(C(F)(F)F)ccc2-c2ccc(-c3cnc(N)cn3)c(F)c2)CC1 [Example 910],9.2 nM,2.9 nM,–,–,–
"CCN(CC)S(=O)(=O)c1ccccc1-c1ccc(-c2cnc3[nH]ccc3n2)c(F)c1 [Example 373, N-Diethyl-3′-fluoro-4′-(5H-pyrrolo[2,3-b]pyrazin-2-yl)biphenyl-2-sulfonamide]",–,–,6.6 nM,0.8 nM,–
"Nc1cnc(-c2ccc(-c3ccccc3S(=O)(=O)N[C@@H]3c4ccccc4C[C@H]3O)cc2F)cn1 [Example 159, 4′-(5-aminopyrazin-2-yl)-3′-fluoro-N-((1R,2R)-2-hydroxy-2,3-dihydro-1H-inden-1-yl)-[1,1′-biphenyl]-2-sulfonamide]",–,–,1.3 nM,0.8 nM,–
"Nc1ccc(-c2ccccc2-c2ccc(-c3cnc(N)cn3)c(F)c2)cn1 [Example 861, 5-[2′-(6-Aminopyridin-3-yl)-3-fluorobiphenyl-4-yl]pyrazin-2-amine]",44.9 nM,4 nM,–,–,–
"Nc1cnc(-c2ccc(-c3ccccc3-c3ccnc(N)n3)cc2F)cn1 [Example 868, 4-[4′-(5-Aminopyrazin-2-yl)-3′-fluorobiphenyl-2-yl]pyrimidin-2-amine]",345 nM,21.5 nM,–,–,–
"Nc1cnc(-c2ccc(-c3ccccc3S(=O)(=O)N3CCNCC3)cc2F)cn1 [Example 46, 5-[3-Fluoro-2′-(piperazin-1-ylsulfonyl)biphenyl-4-yl]pyrazin-2-amine]",–,–,177 nM,61.5 nM,–
"Nc1ncc(-c2ccc(-c3ccccc3-c3ccnc(N)n3)cc2F)cn1 [Example 867, 4-[4′-(2-Aminopyrimidin-5-yl)-3′-fluorobiphenyl-2-yl]pyrimidin-2-amine]",793 nM,246 nM,–,–,–
Nc1cnc(-c2ccc(-c3ccccc3-c3cnn(CCO)c3)cc2F)cn1 [Example 874],359 nM,51.1 nM,–,–,–
"C[C@@H](NS(=O)(=O)c1ccccc1-c1cnc(-c2cnc(N)nc2)c(F)c1)C(F)(F)F [Example 883, 2-[6-(2-Aminopyrimidin-5-yl)-5-fluoropyridin-3yl]-N-[(1R)-2,2,2-trifluoro-1-methylethyl]benzenesulfonamide]",69.5 nM,34.2 nM,–,–,–
"Nc1cnc(-c2ccc(-c3ccccc3S(=O)(=O)N[C@H]3c4ccccc4C[C@H]3O)cc2F)cn1 [Example 160, 4′-(5-aminopyrazin-2-yl)-3′-fluoro-N-((1S,2R)-2-hydroxy-2,3-dihydro-1H-inden-1-yl)-[1,1′-biphenyl]-2-sulfonamide]",–,–,5.3 nM,0.4 nM,< 1 nM
"Nc1cnc(-c2ccc(-c3ccccc3-c3cnsc3)cc2F)cn1 [Example 873, 5-(3-Fluoro-2′-isothiazol-4-ylbiphenyl-4-yl)pyrazin-2-amine]",336 nM,23.1 nM,–,–,–
"C[C@H](NS(=O)(=O)c1ccccc1-c1cnc(-c2cnc(N)nc2)c(F)c1)C(F)(F)F [Example 877, 2-[6-(2-Aminopyrimidin-5-yl)-5-fluoropyridin-3-yl]-N-[(1S)-2,2,2-trifluoro-1-methylethyl]penzenesulfonamide as the hydrochloride salt]",10.5 nM,4.7 nM,–,–,–
"Nc1cnc(-c2ccc(-c3cccnc3Oc3ccccc3)cc2F)cn1 [Example 894, 5-[2-Fluoro-4-(2-phenoxypyridin-3-yl)phenyl]pyrazin-2-amine]",141 nM,3.8 nM,–,–,–
"Nc1ncc(-c2ccc(-c3ccccc3Oc3ccc(C(=O)O)cc3)cc2F)cn1 [Example 889, 4-{[4′-(2-Aminopyrimidin-5-yl)-3′-fluorobiphenyl-2-yl]oxy}benzoic acid]",236 nM,3.9 nM,–,–,–
"Nc1cnc(-c2ccc(-c3ccccc3Oc3ccc(C(=O)O)cc3)cc2F)cn1 [Example 888, 4-{[4′-(5-Aminopyrazin-2-yl)-3′-fluorobiphenyl-2-yl]oxy}benzoic acid]",367 nM,0.7 nM,–,–,–
"Nc1cnc(-c2ccc(-c3cccnc3Oc3cccnc3)cc2F)cn1 [Example 896, 5-{2-Fluoro-4-[2-(pyridin-3-yloxy)pyridin-3-yl]phenyl}pyrazin-2-amine]",466 nM,22.1 nM,–,–,–
Nc1cnc(-c2ccc(-c3ccccc3O[C@H]3CC[C@H](N)CC3)cc2F)cn1 [Example 891],752 nM,31.5 nM,–,–,–
"N#CC1CCN(S(=O)(=O)c2ccccc2-c2ccc(-c3cnc(N)cn3)c(F)c2)CC1 [Example 64, 1-{[4′-(5-Aminopyrazin-2-yl)-3′-fluorobiphenyl-2-yl]sulfonyl}piperidine-4-carbonitrile]",–,–,13.1 nM,1.9 nM,–
"Nc1cnc(-c2ccc(-c3ccccc3OCC3CCS(=O)(=O)CC3)cc2F)cn1 [Example 884, 5-{2′-[(1,1-Dioxidotetrahydro-2H-thiopyran-4-yl)methoxy]-3-fluorobiphenyl-4-yl}pyrazin-2-amine]",706 nM,239 nM,–,–,–
"CCCS(=O)(=O)Nc1ccccc1-c1ccc(-c2cnc(N)cn2)c(F)c1 [Example 36, N-[4′-(5-Aminopyrazin-2-yl)-3′-fluorobiphenyl-2-yl]propane-1-sulfonamide]",–,–,137 nM,8.1 nM,–
"C[C@H](O)CNS(=O)(=O)c1ccccc1-c1cnc(-c2cnc(N)nc2)c(F)c1 [Example 879, 2-[6-(2-Aminopyrimidin-5-yl)-5-fluoropyridin-3-yl]-N-[(2S)-2-hydroxypropyl]benzenesulfonamide]",106 nM,168 nM,–,–,–

# Further lines, results first:
"IC50 [1, 2]",Ki (human FLAP; [3]),"IC50 [1, 4]",Ki (human FLAP; [5]),"Ki (human FLAP; human FLAP wild type, a calculated value of 0.000 indicates Ki less than 1 nM)",Compound
13.3 nM,3.6 nM,–,–,–,"CCNS(=O)(=O)c1cc(C(F)(F)F)ccc1-c1cnc(-c2cnc(N)nc2)c(F)c1 [Example 674, 2-[6-(2-Aminopyrimidin-5-yl)-5-fluoropyridin-3-yl]-N-ethyl-5-(trifluoromethyl)benzenesulfonamide]"
63.4 nM,38.7 nM,–,–,–,"CC(=O)N1CCCC(S(=O)(=O)c2ncccc2-c2ccc(-c3cnc(N)cn3)c(F)c2)C1 (stereo not shown) [Example 903, 5-(4-{2-[(1-Acetylpiperidin-3-yl)sulfonyl]pyridin-3-yl}-2-fluorphenyl)pyrazin-2-amine]"
1.6 nM,1.8 nM,–,–,–,"CC(C)S(=O)(=O)c1nc(C(F)(F)F)ccc1-c1ccc(-c2cnc(N)cn2)c(F)c1 [Example 901, 5-(2-Fluoro-4-{2-[(1-methylethyl)sulfonyl]-6-(trifluoromethyl)pyridin-3-yl}phenyl)pyrazin-2-amine]"
928 nM,79.7 nM,–,–,–,"Nc1ncc(-c2ccc(-c3cccnc3S(=O)(=O)c3ccccc3)cc2F)cn1 [Example 898, 5-{2-Fluoro-4-[2-(phenylsulfonyl)pyridin-3-yl]phenyl}pyrimidin-2-amine]"
–,–,96.3 nM,7.8 nM,–,"Nc1cnc(-c2ccc(-c3ccccc3S(=O)(=O)C3CCC3)cc2F)cn1 [Example 196, 5-[2′-(Cyclobutylsulfonyl)-3-fluorobiphenyl-4-yl]pyrazin-2-amine]"
72.5 nM,149 nM,–,–,–,"Nc1ncc(-c2ccc(-c3cccnc3S(=O)(=O)C3CCOCC3)cc2F)cn1 [Example 831, 5-{2-Fluoro-4-[2-(tetrahydro-2H-pyran-4-ylsulfonyl)pyridin-3-yl]phenyl}pyrimidin-2-amine formic acid salt]"
28.7 nM,166 nM,–,–,–,"CC(=O)N1CCC(S(=O)(=O)c2nc(C(F)(F)F)ccc2-c2ccc(-c3cnc(N)nc3)c(F)c2)CC1 [Example 911, 5-(4-{2-[(1-Acetylpiperidin-4-yl)sulfonyl]-6-(trifluoromethyl)pyridin-3-yl}-2-fluorophenyl)pyrimidin-2-amine]"
105 nM,255 nM,–,–,–,"Nc1cnc(-c2ccc(-c3cccnc3S(=O)(=O)C3CCN(CCO)CC3)cc2F)cn1 [Example 904, 2-[4-({3-[4-(5-Aminopyrazin-2-yl)-3-fluorophenyl]pyridin-2-yl}sulfonyl)pipendin-1-yl]ethanol]"
9 nM,5.7 nM,–,–,–,"Nc1cnc(-c2ccc(-c3cccnc3S(=O)(=O)C3CC3)cc2F)cn1 [Example 829, 5-{4-[2-(Cyclopropylsulfonyl)pyridin-3-yl]-2-fluorophenyl}pyrazin-2-amine formic acid salt]"
117 nM,253 nM,–,–,–,"CS(=O)(=O)N1CCC(S(=O)(=O)c2ncccc2-c2ccc(-c3cnc(N)nc3)c(F)c2)CC1 [Example 909, 5-(2-Fluoro-4-(2-{[1-(methylsulfonyl)piperidin-4-yl]sulfonyl}pyridin-3-yl)phenyl]pyrimidin-2-amine]"
11.9 nM,6.3 nM,–,–,–,"Nc1ncc(-c2ccc(-c3ccc(C(F)(F)F)nc3S(=O)(=O)C3CCS(=O)(=O)CC3)cc2F)cn1 [Example 913, 5-(4-{2-[(1,1-Dioxidotetrahydro-2H-thiopyran-4-yl)sulfonyl]-6-(trifluoromethyl)pyridin-3-yl}-2-fluorophenyl)pyrimidin-2-amine]"

# From patent US9745328B2, “Flap modulators” (JANSSEN PHARMACEUTICA NV, priority 2013, dated 2017)
